The source made the active and inactive calls. Unless noted, no cut-off for these calls is given here.
Columns and labels:
[1] = target: T1, Kappa-type opioid receptor (Homo sapiens, UniProt P41145); test: SAR analysis of Agonists of the Kappa Opioid Receptor (KOR) using an Image-Based Assay - Set 2. [Related pubchem assays (depositor defined):AID1777, AID1786, AID1966, AID2133, AID2136, AID2284, AID2285, AID2359]; format: functional
[2] = target: T1, Kappa-type opioid receptor; test: SAR analysis of Antagonists of the Kappa Opioid Receptor (KOR) using an Image-Based Assay - Set 2. [Related pubchem assays (depositor defined):AID1777, AID1785, AID1786, AID1966, AID2133, AID2136, AID2284, AID2285, AID2348]; format: functional
Mu-type opioid receptor [3] = target: T2, Mu-type opioid receptor (Homo sapiens, UniProt P35372); test: SAR Analysis of Agonists of the MOR Receptor using an Image-Based Assay - Set 2. [Related pubchem assays (depositor defined):AID1777, AID1785, AID1786, AID1966, AID2133, AID2136, AID2284, AID2285, AID2352]; format: functional
[4] = target: T3, Delta-type opioid receptor (Homo sapiens, UniProt P41143); test: SAR Analysis of Agonists of the DOR Receptor using an Image-Based Assay - Set 2. [Related pubchem assays (depositor defined):AID1777, AID1785, AID1786, AID1966, AID2133, AID2136, AID2284, AID2285, AID2370]; format: functional
[5] = target: T3, Delta-type opioid receptor; test: SAR Analysis of Antagonists of the DOR Receptor using an Image-Based Assay - Set 2. [Related pubchem assays (depositor defined):AID1777, AID1785, AID1786, AID1966, AID2133, AID2136, AID2284, AID2285, AID2357]; format: functional
Mu-type opioid receptor [6] = target: T2, Mu-type opioid receptor; test: SAR Analysis of Antagonists of the MOR Receptor using an Image-Based Assay - Set 2. [Related pubchem assays (depositor defined):AID1777, AID1785, AID1786, AID1966, AID2133, AID2136, AID2284, AID2285, AID2420]; format: functional
[7] = target: T1, Kappa-type opioid receptor; test: SAR analysis of small molecule agonists of the kappa opioid receptor via a luminescent beta-arrestin assay - Set 2. [Related pubchem assays (depositor defined):AID1777, AID1785, AID1786, AID1966, AID2133, AID2136, AID2284, AID449737]; format: functional
Hexokinase HKDC1 = target: T4, Hexokinase HKDC1 (Homo sapiens, UniProt Q2TB90); test: activation of HKDC1 glucose phosphorylation – biochemical, W721R variant, dose response (AID 504730); format: functional
T4 sequence (Q2TB90 whole entry): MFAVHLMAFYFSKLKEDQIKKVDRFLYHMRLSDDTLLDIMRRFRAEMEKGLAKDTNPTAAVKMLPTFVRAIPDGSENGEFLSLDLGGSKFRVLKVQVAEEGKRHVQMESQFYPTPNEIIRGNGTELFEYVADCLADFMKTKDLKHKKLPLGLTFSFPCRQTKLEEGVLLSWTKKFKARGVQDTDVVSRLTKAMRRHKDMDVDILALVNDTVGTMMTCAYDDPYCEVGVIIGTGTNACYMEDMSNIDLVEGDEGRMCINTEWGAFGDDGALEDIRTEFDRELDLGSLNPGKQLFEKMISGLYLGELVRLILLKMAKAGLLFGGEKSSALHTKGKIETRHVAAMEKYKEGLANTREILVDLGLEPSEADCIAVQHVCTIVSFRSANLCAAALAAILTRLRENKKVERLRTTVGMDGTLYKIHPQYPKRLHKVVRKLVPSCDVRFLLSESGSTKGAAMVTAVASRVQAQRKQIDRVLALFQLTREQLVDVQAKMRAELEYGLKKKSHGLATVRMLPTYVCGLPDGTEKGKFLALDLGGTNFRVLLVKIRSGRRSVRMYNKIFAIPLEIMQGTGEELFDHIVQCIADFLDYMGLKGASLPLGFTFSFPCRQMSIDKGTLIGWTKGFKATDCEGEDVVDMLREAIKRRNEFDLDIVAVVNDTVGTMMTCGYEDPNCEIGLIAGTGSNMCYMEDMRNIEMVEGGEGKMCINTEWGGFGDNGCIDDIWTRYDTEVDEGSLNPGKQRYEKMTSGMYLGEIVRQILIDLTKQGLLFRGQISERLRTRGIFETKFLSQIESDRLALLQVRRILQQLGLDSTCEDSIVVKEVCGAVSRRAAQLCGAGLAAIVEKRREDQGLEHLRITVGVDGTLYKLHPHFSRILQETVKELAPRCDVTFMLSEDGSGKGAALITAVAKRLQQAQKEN

[8] = target: T5, Type-1 angiotensin II receptor (Homo sapiens, UniProt P30556); test: antagonism of angiotensin II type 1 receptor – cell-based, uHTS hits, selectivity assay for APJ receptor antagonist project, dose response (AID 463214); format: functional;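 note: antagonist potency against angiotensin II stimulated AT1 response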
T5 sequence (P30556 whole entry): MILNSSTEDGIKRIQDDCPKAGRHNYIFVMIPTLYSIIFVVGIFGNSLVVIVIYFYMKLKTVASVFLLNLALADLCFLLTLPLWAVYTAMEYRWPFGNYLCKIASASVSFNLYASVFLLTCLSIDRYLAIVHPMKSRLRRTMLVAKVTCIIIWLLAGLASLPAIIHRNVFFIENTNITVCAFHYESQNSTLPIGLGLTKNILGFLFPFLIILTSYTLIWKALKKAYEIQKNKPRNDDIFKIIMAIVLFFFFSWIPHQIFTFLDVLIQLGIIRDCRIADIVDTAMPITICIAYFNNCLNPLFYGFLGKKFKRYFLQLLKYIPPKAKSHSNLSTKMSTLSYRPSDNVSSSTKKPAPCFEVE

[9] = target: T6, RNA-binding protein pos-1 (Caenorhabditis elegans, UniProt G5EF15); test: disruptors of C. elegans POS-1 RNA interaction – biochemical, fluorescence polarization, dose response (AID 1964);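 note: purified POS-1 fused to maltose binding protein made in E. coli; potency of compounds blocking POS-1 binding to fluorescent RNA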
T6 sequence (G5EF15 whole entry): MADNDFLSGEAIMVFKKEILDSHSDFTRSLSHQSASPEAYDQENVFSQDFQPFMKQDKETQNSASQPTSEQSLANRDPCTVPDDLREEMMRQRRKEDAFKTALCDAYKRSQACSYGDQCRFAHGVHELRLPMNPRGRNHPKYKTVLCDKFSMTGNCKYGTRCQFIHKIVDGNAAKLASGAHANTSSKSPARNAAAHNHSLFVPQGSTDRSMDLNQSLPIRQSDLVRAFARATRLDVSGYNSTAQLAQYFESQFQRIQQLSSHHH

Beta-galactosidase = Beta-galactosidase (Escherichia coli, UniProt Q8VNN2); test: PubChem AID 485352; format: functional
[10] = target: Lysine-specific demethylase 4C (Homo sapiens, UniProt Q9H3R0); test: inhibition of JMJD2C H3K9me3 demethylation – biochemical, DELFIA europium, cherry-picked samples, dose response (AID 488835); format: functional
[11] = target: Lysine-specific demethylase 4A (Homo sapiens, UniProt O75164); test: inhibition of JMJD2A H3K9me3 demethylation – biochemical, DELFIA europium, cherry-picked samples, selectivity assay for GASC-1 inhibitor project, dose response (AID 488840)
Hexokinase-1 = target: T7, Hexokinase-1 (Homo sapiens, UniProt P19367); test: HK1 enzyme activation by HKDC1 hits – biochemical, selectivity assay for HKDC1 activator project, dose response (AID 504762); format: functional
T7 sequence (P19367 whole entry): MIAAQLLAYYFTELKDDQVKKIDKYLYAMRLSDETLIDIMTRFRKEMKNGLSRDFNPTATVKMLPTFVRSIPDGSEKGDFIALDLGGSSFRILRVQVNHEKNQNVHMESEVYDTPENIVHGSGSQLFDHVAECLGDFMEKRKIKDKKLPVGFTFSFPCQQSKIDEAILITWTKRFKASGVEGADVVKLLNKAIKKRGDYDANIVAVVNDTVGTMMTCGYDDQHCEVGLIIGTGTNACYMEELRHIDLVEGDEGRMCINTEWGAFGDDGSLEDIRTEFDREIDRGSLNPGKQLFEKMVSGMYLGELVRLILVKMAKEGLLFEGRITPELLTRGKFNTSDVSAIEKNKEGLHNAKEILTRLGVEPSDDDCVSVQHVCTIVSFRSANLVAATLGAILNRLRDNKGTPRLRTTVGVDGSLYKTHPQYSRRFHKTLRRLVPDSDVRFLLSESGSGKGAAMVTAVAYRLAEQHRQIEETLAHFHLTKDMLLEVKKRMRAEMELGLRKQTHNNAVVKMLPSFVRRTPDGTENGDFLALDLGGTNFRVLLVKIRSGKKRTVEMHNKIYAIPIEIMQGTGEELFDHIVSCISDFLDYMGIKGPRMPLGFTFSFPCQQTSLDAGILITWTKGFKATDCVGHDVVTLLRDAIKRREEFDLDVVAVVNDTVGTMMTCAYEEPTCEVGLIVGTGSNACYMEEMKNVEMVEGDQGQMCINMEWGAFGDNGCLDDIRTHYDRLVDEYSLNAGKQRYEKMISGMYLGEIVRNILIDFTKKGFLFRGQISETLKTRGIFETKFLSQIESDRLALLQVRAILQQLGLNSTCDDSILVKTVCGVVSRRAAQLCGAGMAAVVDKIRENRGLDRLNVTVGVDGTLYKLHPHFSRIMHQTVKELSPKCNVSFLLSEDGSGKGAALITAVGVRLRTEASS

[12] = target: T8, Zinc finger protein mex-5 (Caenorhabditis elegans, UniProt Q9XUB2); test: potency of MEX-5 RNA-binding blockers – biochemical, C. elegans, fluorescence polarization, dose response (AID 1960)
T8 sequence (Q9XUB2 whole entry): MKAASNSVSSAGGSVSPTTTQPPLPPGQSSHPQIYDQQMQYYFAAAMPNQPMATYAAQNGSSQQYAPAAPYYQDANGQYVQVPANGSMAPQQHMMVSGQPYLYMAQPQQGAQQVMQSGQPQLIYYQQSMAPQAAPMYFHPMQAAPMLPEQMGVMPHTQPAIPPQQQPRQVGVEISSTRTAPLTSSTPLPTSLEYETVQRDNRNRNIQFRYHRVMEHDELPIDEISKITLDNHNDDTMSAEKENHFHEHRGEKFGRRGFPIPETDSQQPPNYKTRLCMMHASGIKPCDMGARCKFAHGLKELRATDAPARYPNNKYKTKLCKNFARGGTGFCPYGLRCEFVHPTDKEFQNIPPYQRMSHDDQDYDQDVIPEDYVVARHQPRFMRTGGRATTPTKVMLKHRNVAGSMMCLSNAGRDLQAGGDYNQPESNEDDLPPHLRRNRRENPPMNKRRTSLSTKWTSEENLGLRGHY

[13] = target: T9, Intestinal-type alkaline phosphatase (Homo sapiens, UniProt P09923); test: human intestinal alkaline phosphatase activators, dose response, biochemical, luminescence, uHTS hits (AID 463120); format: functional
[14] = target: T10, Alkaline phosphatase, tissue-nonspecific isozyme (Homo sapiens, UniProt P05186); test: activation of tissue-nonspecific alkaline phosphatase – biochemical, TNAP isozyme, human IAP uHTS hits, selectivity assay for human IAP activator project, dose response (AID 488886); format: functional;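 note: potency of compounds raising TNAP activity as a selectivity check on IAP activators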
T10 sequence (P05186 whole entry): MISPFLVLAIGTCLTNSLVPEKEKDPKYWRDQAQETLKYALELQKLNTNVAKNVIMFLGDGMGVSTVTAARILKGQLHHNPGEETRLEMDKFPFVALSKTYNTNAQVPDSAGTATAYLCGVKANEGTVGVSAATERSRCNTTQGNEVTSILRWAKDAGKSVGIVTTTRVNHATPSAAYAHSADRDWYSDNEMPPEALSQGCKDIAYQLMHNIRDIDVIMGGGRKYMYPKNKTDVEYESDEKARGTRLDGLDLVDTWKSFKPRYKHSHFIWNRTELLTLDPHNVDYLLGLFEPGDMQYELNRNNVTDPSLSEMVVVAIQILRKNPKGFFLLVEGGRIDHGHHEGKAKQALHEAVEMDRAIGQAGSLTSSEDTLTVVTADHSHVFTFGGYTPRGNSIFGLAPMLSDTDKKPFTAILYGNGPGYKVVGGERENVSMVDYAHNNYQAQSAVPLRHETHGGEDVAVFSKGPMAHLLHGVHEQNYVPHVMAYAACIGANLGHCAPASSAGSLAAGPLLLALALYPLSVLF

[15] = target: Intestinal-type alkaline phosphatase (Mus musculus, UniProt P24822); test: PubChem AID 488874; format: functional
[16] = target: T9, Intestinal-type alkaline phosphatase; test: activation of human intestinal alkaline phosphatase – biochemical, luminescent, uHTS hits, set 2, dose response (AID 488817); format: functional;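 note: potency of activators that raise enzyme activity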
SUMO E1/E2 = SUMO E1/E2 (Homo sapiens, UniProt P63279+Q9UBE0+Q9UBT2); test: SAR analysis of SUMOylation using HTRF in an in-Vitro dose response assay. [Related pubchem assays (depositor defined):AID2006, AID2011, AID2018, AID2069, AID2658]; format: functional
Candida albicans = test: C. albicans growth inhibition with fluconazole – CaCi-2 strain, Alamar Blue, dry powder, set 4, dose response (AID 488943); format: functional, organism-based
Cytochrome P450 3A4 = Cytochrome P450 3A4 (Homo sapiens, UniProt P08684);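 note: CYP3A4 tested as one member of a cytochrome P450 panel screen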
[17] = M. tuberculosis growth inhibition, HTS (AID 449762); format: functional
[18] = microbe, parasite or virus in culture; format: functional; conditions: Mycobacterium tuberculosis

T1 sequence (P41145 whole entry): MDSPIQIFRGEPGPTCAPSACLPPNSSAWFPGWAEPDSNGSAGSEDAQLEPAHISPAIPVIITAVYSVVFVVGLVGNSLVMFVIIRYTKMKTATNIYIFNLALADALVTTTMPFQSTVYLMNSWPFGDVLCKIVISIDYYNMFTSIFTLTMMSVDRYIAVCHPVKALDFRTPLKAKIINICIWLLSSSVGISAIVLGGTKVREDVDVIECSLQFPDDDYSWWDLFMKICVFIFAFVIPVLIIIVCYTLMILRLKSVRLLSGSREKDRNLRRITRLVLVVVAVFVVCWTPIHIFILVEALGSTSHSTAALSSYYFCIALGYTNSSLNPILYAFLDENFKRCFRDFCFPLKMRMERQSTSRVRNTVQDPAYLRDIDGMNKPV
T3 sequence (P41143 whole entry): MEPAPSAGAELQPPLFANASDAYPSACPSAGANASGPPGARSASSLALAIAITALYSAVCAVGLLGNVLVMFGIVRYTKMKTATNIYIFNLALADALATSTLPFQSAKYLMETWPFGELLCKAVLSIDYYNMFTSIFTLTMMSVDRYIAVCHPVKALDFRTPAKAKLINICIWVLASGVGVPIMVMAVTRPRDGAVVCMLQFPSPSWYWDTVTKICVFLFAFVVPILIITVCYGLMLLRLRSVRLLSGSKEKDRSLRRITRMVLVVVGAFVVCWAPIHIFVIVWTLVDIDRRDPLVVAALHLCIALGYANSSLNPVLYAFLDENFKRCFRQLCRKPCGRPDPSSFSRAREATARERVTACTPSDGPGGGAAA
T2 sequence (P35372 whole entry): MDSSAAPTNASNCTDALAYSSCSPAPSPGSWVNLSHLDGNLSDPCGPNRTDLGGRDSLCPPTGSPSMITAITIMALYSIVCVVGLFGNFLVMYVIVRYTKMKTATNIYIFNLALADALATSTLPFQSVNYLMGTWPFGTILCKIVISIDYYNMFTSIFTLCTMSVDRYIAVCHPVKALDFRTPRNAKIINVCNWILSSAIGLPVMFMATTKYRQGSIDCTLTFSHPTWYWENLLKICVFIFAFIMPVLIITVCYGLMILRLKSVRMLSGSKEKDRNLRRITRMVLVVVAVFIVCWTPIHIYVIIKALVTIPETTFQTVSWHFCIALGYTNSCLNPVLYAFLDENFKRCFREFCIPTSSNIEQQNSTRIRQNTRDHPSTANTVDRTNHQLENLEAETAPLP
T9 sequence (P09923 whole entry): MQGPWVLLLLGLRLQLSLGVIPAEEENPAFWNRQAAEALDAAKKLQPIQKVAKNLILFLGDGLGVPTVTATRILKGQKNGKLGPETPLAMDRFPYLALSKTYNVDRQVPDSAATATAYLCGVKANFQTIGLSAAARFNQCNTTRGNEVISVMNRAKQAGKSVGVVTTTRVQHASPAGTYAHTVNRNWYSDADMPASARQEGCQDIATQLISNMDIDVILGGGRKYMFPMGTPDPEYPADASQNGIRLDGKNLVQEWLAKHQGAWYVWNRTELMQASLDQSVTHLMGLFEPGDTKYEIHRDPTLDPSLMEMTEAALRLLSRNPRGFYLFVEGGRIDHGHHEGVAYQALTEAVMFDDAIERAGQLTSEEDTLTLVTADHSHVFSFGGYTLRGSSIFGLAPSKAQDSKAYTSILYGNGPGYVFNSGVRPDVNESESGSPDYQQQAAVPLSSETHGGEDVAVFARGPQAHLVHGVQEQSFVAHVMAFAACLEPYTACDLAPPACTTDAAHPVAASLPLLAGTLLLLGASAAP
Sequence of Lysine-specific demethylase 4C (Q9H3R0 whole entry): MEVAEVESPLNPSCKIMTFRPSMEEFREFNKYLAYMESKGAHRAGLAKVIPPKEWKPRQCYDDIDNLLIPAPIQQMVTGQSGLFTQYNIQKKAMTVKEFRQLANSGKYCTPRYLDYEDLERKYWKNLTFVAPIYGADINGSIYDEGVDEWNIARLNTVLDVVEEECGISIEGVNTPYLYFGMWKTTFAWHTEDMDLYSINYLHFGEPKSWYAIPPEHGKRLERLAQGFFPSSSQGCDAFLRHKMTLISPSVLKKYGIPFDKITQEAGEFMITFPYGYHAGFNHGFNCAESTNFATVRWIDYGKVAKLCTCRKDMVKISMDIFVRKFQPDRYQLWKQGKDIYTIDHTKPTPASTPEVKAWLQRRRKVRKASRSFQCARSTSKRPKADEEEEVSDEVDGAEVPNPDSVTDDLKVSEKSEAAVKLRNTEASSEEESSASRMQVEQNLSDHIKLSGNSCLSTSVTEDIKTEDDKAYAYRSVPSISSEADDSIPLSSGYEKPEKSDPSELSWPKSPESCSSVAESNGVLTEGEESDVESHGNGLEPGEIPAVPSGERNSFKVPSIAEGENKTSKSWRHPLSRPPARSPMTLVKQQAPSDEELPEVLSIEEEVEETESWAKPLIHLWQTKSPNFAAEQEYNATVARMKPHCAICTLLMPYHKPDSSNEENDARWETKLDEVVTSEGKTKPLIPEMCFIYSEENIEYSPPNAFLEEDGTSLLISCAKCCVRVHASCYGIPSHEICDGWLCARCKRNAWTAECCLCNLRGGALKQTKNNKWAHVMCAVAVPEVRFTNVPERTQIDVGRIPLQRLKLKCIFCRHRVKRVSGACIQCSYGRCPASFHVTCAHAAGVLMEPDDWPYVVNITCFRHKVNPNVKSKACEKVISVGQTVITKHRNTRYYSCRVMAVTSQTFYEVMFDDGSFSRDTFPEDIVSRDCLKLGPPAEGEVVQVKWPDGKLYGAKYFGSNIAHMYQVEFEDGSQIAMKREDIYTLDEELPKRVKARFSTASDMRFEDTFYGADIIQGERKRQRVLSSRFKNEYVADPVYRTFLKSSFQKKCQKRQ
Sequence of Intestinal-type alkaline phosphatase (Mus musculus, UniProt P24822) (P24822 whole entry): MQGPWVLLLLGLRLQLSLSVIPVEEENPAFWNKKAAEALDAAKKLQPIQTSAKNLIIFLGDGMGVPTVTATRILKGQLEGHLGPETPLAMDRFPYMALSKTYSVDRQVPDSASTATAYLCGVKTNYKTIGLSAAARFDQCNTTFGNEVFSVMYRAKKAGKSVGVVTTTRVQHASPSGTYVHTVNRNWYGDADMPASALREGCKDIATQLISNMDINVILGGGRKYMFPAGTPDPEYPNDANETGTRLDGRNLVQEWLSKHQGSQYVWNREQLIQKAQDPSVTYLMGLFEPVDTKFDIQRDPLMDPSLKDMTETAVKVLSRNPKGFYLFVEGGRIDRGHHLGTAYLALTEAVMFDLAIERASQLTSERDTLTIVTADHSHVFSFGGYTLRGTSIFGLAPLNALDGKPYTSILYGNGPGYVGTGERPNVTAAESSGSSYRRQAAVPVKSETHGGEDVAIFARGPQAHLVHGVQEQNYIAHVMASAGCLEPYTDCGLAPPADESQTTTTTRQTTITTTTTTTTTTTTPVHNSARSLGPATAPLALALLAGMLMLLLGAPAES
Sequence of Lysine-specific demethylase 4A (O75164 whole entry): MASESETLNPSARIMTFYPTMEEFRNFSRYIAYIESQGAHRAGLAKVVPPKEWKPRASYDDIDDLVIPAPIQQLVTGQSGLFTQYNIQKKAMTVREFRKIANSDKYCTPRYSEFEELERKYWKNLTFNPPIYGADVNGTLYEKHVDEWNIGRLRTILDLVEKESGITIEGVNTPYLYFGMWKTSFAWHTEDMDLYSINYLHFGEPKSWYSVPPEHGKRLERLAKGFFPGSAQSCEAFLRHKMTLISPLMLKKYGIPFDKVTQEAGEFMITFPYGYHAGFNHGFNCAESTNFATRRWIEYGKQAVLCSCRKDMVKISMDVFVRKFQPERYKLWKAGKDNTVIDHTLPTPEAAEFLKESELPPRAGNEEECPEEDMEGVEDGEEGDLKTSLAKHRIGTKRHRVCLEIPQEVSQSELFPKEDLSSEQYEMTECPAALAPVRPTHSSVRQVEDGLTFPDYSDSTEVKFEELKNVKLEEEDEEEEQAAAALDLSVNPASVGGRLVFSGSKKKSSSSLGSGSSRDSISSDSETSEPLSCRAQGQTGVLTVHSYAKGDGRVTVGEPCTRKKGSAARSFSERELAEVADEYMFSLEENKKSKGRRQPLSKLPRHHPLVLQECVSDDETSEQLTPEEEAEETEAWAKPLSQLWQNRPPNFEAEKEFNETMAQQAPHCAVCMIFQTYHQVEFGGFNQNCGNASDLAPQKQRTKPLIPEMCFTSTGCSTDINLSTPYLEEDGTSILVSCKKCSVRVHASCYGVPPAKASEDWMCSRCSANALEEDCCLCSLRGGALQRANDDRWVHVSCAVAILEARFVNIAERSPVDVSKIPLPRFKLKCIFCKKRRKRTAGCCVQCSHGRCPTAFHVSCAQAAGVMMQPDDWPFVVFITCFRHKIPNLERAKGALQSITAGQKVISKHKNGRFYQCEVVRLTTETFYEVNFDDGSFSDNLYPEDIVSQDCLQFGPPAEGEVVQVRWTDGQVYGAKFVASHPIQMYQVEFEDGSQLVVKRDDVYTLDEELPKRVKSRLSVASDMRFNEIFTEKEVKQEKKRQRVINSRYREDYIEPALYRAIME
Sequence of Cytochrome P450 3A4 (P08684 whole entry): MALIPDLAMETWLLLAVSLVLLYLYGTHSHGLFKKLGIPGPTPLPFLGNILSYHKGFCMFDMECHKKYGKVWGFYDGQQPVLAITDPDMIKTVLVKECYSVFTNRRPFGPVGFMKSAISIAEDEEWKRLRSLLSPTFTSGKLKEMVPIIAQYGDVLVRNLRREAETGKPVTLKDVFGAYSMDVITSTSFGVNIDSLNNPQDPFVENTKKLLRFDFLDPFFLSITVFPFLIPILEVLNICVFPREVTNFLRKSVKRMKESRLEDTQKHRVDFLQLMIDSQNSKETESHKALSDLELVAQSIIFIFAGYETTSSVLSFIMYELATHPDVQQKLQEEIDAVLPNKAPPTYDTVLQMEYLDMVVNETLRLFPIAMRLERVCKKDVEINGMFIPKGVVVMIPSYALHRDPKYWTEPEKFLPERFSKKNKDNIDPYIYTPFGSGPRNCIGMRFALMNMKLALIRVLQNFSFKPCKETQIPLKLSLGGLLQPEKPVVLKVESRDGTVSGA

## COc1ccc(CSc2nnc(-c3ccccn3)n2Cc2cccs2)cc1
[1]
  EC50: 5.98 µM (active)
[2]
  IC50: > 32 µM (inactive)
Mu-type opioid receptor [3]
  EC50: > 32 µM (inactive)
[4]
  EC50: > 32 µM (inactive)
[5]
  IC50: > 32 µM (inactive)
Mu-type opioid receptor [6]
  IC50: > 32 µM (inactive)
[7]
  EC50: 9.61 µM (active)

## CC(=O)C1=C(c2ccccc2)N(C(C)=O)n2c(C)nnc2S1
Hexokinase HKDC1
  EC50: 26 µM (inactive)
[8]
  IC50: 11.3 µM (active)
[9]
  EC50: 191 µM (active)
Beta-galactosidase
  EC50: 16.8 µM (active)
[10]
  AC50: 0.8 µM (active)
[11]
  AC50: 56.3 µM (active)
Hexokinase-1
  EC50: 20.8 µM (inactive)
[12]
  EC50: 10.7 µM (active)

## O=C(Cc1ccc(Cl)c(Cl)c1)NNC(=S)NCC1CCCO1 (centres undefined)
[13]
  EC50: 14.3 µM (active)
[14]
  EC50: 20.2 µM (active)
[15]
  IC50: 49.6 µM (active)
[16]
  EC50: 17.5 µM (active)

## S=c1[nH]nc(-c2cc(-c3ccccc3)[nH]n2)n1N=Cc1ccc(Br)s1
SUMO E1/E2
  IC50: 11.3 µM (active)

## Clc1ccc2c(N3CCNCC3)ccnc2c1
Candida albicans
  AC50: 21.7 µM (active)

## COC(=O)C(Cc1ccc(OC(=O)c2ccc(C(F)(F)F)cc2)cc1)N1Cc2ccccc2C1=O (centres undefined)
Cytochrome P450 3A4
  AC50: inconclusive
[17]
  IC50: > 100 µM (active)
[18]
  CC50: 37.4 µM (active)

From ChEMBL document CHEMBL1201862, “PubChem BioAssay data set” (2004)
